Laboratory results reported in PMC5193075 (The Journal of Pharmacology and Experimental Therapeutics, 2017).

How the values were obtained:
[1] = Unbound drug fraction in cell culture medium by rapid equilibrium dialysis; type: in vitro ADME; conditions: bovine, bovine serum albumin-containing cell culture medium
[2] = test system: cryopreserved human primary hepatocytes; assay: Drug depletion; conditions: for interdonor variability in unbound intrinsic clearance (IDV): individual-donor data; for interdonor variability in unbound intrinsic clearance (IDV) / interwell variability in unbound intrinsic clearance (IWV): parentheses = relative standard error; for CLint(u) ratio individual-donor/pooled hepatocytes: parentheses = 95% confidence intervals (Fieller's theorem)
[3] = Prediction of in vivo hepatic clearance from liver MPS data; parameters: species or system human
[4] = individual-donor data (within donor)

Row | SMILES | fraction unbound [1] | interdonor variability in unbound intrinsic clearance (IDV) [2] | fold-error (underprediction) of in vivo hepatic clearance ([3]; parallel tube (PT) liver model) | fold-error (underprediction) of in vivo hepatic clearance ([3]; well stirred (WS) liver model) | interwell variability in unbound intrinsic clearance (IWV) [2, 4] | interdonor variability in unbound intrinsic clearance (IDV) ([2]; listed as phenacetin) | CLint(u) ratio individual-donor/pooled hepatocytes [2] | interwell variability in unbound intrinsic clearance (IWV) ([2]; pooled hepatocytes data)
1 | O=C(O)Cc1ccccc1Nc1c(Cl)cccc1Cl [Diclofenac, diclofenac] | 0.13 | 36.2% (71.5%) CV% | – | – | – | – | – | –
2 | CC(C)Cc1ccc(C(C)C(=O)O)cc1 (stereo not shown) [Ibuprofen, ibuprofen] | 0.31 | – | – | – | – | – | – | –
3 | CCOc1ccc(NC(C)=O)cc1 [Phenacetin, phenacetin] | 0.98 | 24.1% (80.4%) CV% | 1.7 fold | 2.1 fold | 26.1% (65.2%) CV% | 24.1 CV% | 0.92 (0.61, 1.47) | 30.7% (41.5%) CV%
4 | C[C@]12C=CC(=O)C=C1CC[C@@H]1[C@@H]2[C@@H](O)C[C@@]2(C)[C@H]1CC[C@]2(O)C(=O)CO [Prednisolone, prednisolone] | 0.94 | 29.3% (58.1%) CV% | – | – | 21.5% (70.0%) CV% | – | 0.89 (0.63, 1.16) | –
5 | CC(C)NCC(O)COc1cccc2ccccc12 (stereo not shown) [Propranolol, propranolol] | 0.98 | – | – | – | – | – | – | –
